According to US20080008774A1, “Use Of Plants, Plant Extracts And Nature-Identical Components From Plants To Affect The Rumen Fermentation And To Improve The Energy And Protein Retention Of Ruminants” (DSM IP ASSETS B.V., priority 2004, published 2008):

Tests used:
ruminal fermentation [1] = experiment: Hohenheim methods for general effects on fermentation (RPT, grass silage); format: cell-based, non-lactating Holstein cows; conditions: Hohenheim diet; amount in feed 10 %; control = 100
ruminal fermentation [2] = experiment: León methods for general effects on fermentation (batch cultures); format: cell-based, sheep; conditions: Leon diet; amount in feed 10 %; 24 h; control = 100
Procedure: Rumen cannulated sheep fed on a diet consisting of 75% alfalfa hay and 25% barley (free access to vitamin-mineral supplements and water) were used as donors for rumen fluid. Rumen fluid was collected just before the morning meal. The substrate used for the batch cultures consisted of 50% alfalfa hay, 40% grass hay and 10% barley grain, milled in a hammer mill with a 1-mm screen. The amount of substrate used was 500 mg, and inclusion rate of the test plant was 10% (ca. 50 mg). Both were weighed into serum bottles, where 50 ml of buffered rumen fluid (containing 10 ml of filtered rumen fluid and 40 ml of the medium described by Goering & Van Soest, 1970) were dispensed an-aerobically. The bottles were sealed and incubated at 39° C. After 24 h of incubation, the ensuing measurements were recorded: • Total gas production (ml), using a pressure transducer and collecting the gas in a calibrated syringe. • pH in the incubation medium. • Volatile fatty acids concentration in the incubation medium, by GC (VFA was also measured at inoculation time to calculate VFA production after 24 h). • DM incubation residue, by filtering the bottle contents in sintered crucibles and weighing the residue after drying. Thereafter, the neutral detergent fibre (NDF) content of the residue was determined to calculate the amount of un-degraded NDF. From this, DM and NDF disappearance were estimated. Three replicates per plant were incubated, and blanks (no substrate no plant) and controls (500 mg substrate without any plant, and 550 mg substrate without any plant) were used.

ruminal digesta [3] = experiment: Methane formation by ruminal digesta (León incubations, GC); format: cell-based, sheep
Procedure: A representative sample of the gas produced was taken for subsequent analysis. Sampling was conducted using special gas-tight glass syringes fitted with a valve allowing for sample locking and storage. The sample was collected directly from the headspace, after inserting the needle through the septum of the stopper, taking a sample in the syringe and closing the valve. This sample was collected after measuring total gas production, assuming that gas composition was the same in the gas released and in that remaining in the headspace. Methane concentration in the gas produced was determined by gas chromatography. The gas sample (300 to 500 μl) was injected directly from the gas-tight syringe to the corresponding port. The GC parameter settings used for the analysis were: • Instrument: Shimadzu GC-14B provided with a flame ionisation detector (FID) • Column: 2.3 meters length×2.1 mm internal diameter stainless steel column packed with 60/80 mesh Carboxen 1000 stationary phase • Carrier gas: Helium, flow rate (100 kPa), Constant flow mode • Temperatures: • Detector: FID. Temperature 200° C., Synthetic Air flow rate (50 kPa), H2 flow rate (50 kPa) • Injector: Temperature 200° C. • Column-oven: 170° C. […] The standard curve was established by plotting a linear regression of the standard quantities injected of methane versus the area of the peaks to obtain the response factor.

ruminal digesta [4] = experiment: Proteolytic activity of ruminal digesta, Method 1 (14C-casein); format: cell-based, sheep; conditions: 2.5 mg/ml, 1 h; value in absence of plant material = 100
Procedure: Method 1. Strained ruminal fluid from the same sheep was used to determine proteolytic activity using the ^14C-casein method of Wallace (1983). Samples were added to a final concentration of 2.5 mg/ml, and an incubation time of 1 h was used.

[5] = tested on: lactic acid producing bacteria; experiment: Acidosis assay (pH and lactic acid, milled wheat grain, 48-h fermentation); format: cell-based, cows; conditions: 100 mg/g DM in milled wheat grain (β-myrcene 10 mg/g), control = 100
Procedure: A model was used in which the decrease in incubation medium pH and the concentration of lactic acid produced, relative to the controls over a 48-h fermentation period provided an indication of the ability of the test substrates to offset potential acidotic effects. In this study milled wheat grain [2 mm] was used as the basal substrate and the test materials included at 100 mg g^−1 DM [or 10 mg g^−1 DM β-myrcene]. As before 1.0 g total substrate was added to each flask. To enhance lactic acid production, the buffer solution prepared was diluted by 50 percent. This was to ensure that the buffering capacity of the incubation medium was exceeded and the resulting decrease in pH encouraged growth of Lactobacilli and other lactic acid producing bacteria. Rumen fluid was obtained and prepared as previously described except that the two cows used were offered an early lactation ration with a high level of coarse milled wheat. Fluid pH measurements were made one hour after inoculation [start pH] then after a further 23 and 47 hours, by inserting a pH electrode directly into each flask. Immediately following the last measurement approximately 3.0 ml fluid were taken from each flask, bulked by sample and stored frozen at −20° C. until analyzed enzymatically for L [+] lactic acid. Results are presented as absolute differences relative to the controls. […]

ruminal ciliate protozoa = experiment: Bacteriolytic activity of ruminal ciliate protozoa (breakdown of 14C-leucine-labelled Selenomonas ruminantium in strained ruminal fluid); format: cell-based, sheep
Procedure: The rate of breakdown of [^14C]leucine-labelled Selenomonas ruminantium was determined by incubating strained ruminal fluid in vitro with labelled S. ruminantium in the presence of 5 mM unlabelled L-leucine as described previously (Wallace & McPherson, 1987). Under these conditions, the great majority of bacterial protein breakdown is caused by the ingestion and digestion of bacteria by ciliate protozoa. The samples were, unless stated otherwise, added at a concentration of 5 mg/ml. The sheep received a mixed grass hay:concentrate diet (Frumholtz et al., 1989).

ruminal fermentation [6] = experiment: Reading methods for general effects on fermentation (RPT, maize silage); format: cell-based, lactating dairy cows; conditions: Reading diet; for Cumulative gas, 24 h / Fermentation efficiency: control = 100; for Dry matter digestion: value in absence of plant material = 100
Procedure: A series of thirteen consecutive fermentations, one per week, was undertaken using the Reading Pressure Technique [RPT], to identify potential effects from including these test materials on the fermentation and degradation characteristics of a basal forage [maize silage]. All materials were examined in triplicate and at two inclusion levels [100 and 400 mg g^−1 DM substrate], with the exception of β-myrcene [10 and 40 mg g^−1 inclusion levels]. The maize silage was pre-dried and milled to pass a 2 mm screen. A total of 1.0 g blended substrate [silage plus substrate] was placed in each fermentation flask. Buffered incubation medium [90 ml] was then added, the flasks sealed and stored overnight at room temperature. Prior to inoculation with prepared rumen fluid, flask contents were raised to 39° C. Rumen fluid was obtained manually [hand-squeezed contents] prior to feeding [07.00 h] from two lactating dairy cows offered a maize/grass silage : concentrate [60:40] ration ad libitum. The fluid was filtered through two layers of muslin and held under CO2 at 39° C. until use. Ten ml prepared fluid was added to each flask and these incubated at 39° C. for the duration of the study. Six negative controls [buffered medium plus rumen fluid only] were included in each run to correct gas values and degradation residues for direct rumen fluid effects. In addition un-supplemented maize silage [1.0 g flask^−1] was included in all runs [six flasks per run]. Results within studies were expressed relative to the positive control values. Headspace gas pressure readings were obtained 2, 4, 6, 8, 10, 12, 14, 16, 18, 21 and 24 hours post-inoculation. Following the last measurement approximately 3.0 ml fermentation medium was sampled from each flask and bulked by test material/inclusion level and stored frozen [−20° C.] until later analysis for VFA composition using a Varian 3600 GC. Fermentation residues were recovered by filtering flask contents through 60 ml Gooch crucibles [porosity 1, 100 to 160 μm] under light vacuum. The residues were then dried [100° C. for 24 hours], weighed, ashed [500° C. overnight] and reweighed. The quantity of dry matter [DM] and organic matter [OM] determined were used to assess iDMD and iOMD [in vitro DM and OM degradation, respectively]. The extent [ml gas g^−1 OM incubated] and rate of fermentation gas release [ml h^−1] were generated using a previously derived quadratic function to convert pressure to volume. Feed fermentation efficiency [FE] was estimated as iDMD [g kg^−1]/cumulative gas [ml] release at 24 h post-inoculation. Statistical differences between treatment means and the positive control [maize silage alone] were assessed using Students T-test and significance declared at […].

[7] = amount in feed 10 % (β-myrcene 10 mg/g)
[8] = amount in feed 40 % (β-myrcene 40 mg/g)

C=CC(=C)CCC=C(C)C [Sample 13, β-Myrcene]
C3/C2 (ruminal fermentation [1]): 104
Digestibility (ruminal fermentation [1]): 100
Fermentation efficiency (ruminal fermentation [1]): 99
Gas production (ruminal fermentation [1]): 101
SCFA (ruminal fermentation [1]): 103
App. digestibility (ruminal fermentation [2]): 93
C3/C2 (ruminal fermentation [2]): 105
Digestibility (ruminal fermentation [2]): 102
Fermentation efficiency (ruminal fermentation [2]): 109
Gas production (ruminal fermentation [2]): 97
Microbial biomass (ruminal fermentation [2]): 115
TVFA (ruminal fermentation [2]): 96
methane production / methanogenic activity (in words) (ruminal digesta [3]): decrease
Methane formation, Leon (ruminal digesta [3]; 10% of feed, value in absence of plant material = 100): 90
Proteolysis, Method 1 (ruminal digesta [4]): 110
Acidity, 24 h ([5]; 24 h): 105
Acidity, 48 h ([5]; 48 h): 115
bacteriolytic activity of ciliate protozoa / protozoal activity (in words) (ruminal ciliate protozoa): moderate inhibiting effect
Protozoal activity (ruminal ciliate protozoa; 5 mg/ml, value in absence of plant material = 100): 68
Cumulative gas, 24 h (ruminal fermentation [6]; [7]): 100
Fermentation efficiency (ruminal fermentation [6]; [7]): 103
Dry matter digestion (ruminal fermentation [6]; [7]): 103
Cumulative gas, 24 h (ruminal fermentation [6]; [8]): 82
Fermentation efficiency (ruminal fermentation [6]; [8]): 109
Dry matter digestion (ruminal fermentation [6]; [8]): 89
